Measured values published in the NIST ThermoML archive (doi:10.1016/j.tca.2018.02.007).
± gives the expanded uncertainty stated by the source.

Legend:
[1] = for thermal conductivity: 101.33 kPa, T-histrory method; for Triple point temperature: DSC
[2] = Molar enthalpy of transition or fusion; details: DSC

thermal conductivity ([1]; 340.65 K, Crystal 2): 0.112 ± 0.007 W/m/K
thermal conductivity ([1]; 395.65 K, Crystal 2): 0.108 ± 0.007 W/m/K
thermal conductivity ([1]; 450.65 K, Crystal 2): 0.104 ± 0.006 W/m/K
Triple point temperature ([1]; Crystal 1): 531.25 ± 0.8 K
Triple point temperature ([1]; Crystal 2): 454.55 ± 0.8 K
Molar enthalpy of transition or fusion ([2]; Crystal 1): 1.4 ± 0.0645 kcal/mol
Molar enthalpy of transition or fusion ([2]; Crystal 2): 8.59 ± 0.382 kcal/mol
SMILES: OCC(CO)(CO)CO [2,2-bis(hydroxymethyl)-1,3-propanediol]
